# Measurements reported in PMC10700673, “A Smart Intracellular Self‐Assembling Bioorthogonal Raman Active Nanoprobe for Targeted Tumor Imaging” (Advanced Science, 2023).
# Tests used:
# DU145 tumors = experiment: ex vivo Raman imaging of excised tumor sections with MCR analysis; assay type: in vivo, NU/J nude mice
# Method: Ex vivo Raman imaging was conducted on the tumor excised from the tumor‐bearing mice at 2 h post‐administration of nanoSABER (Figure 6b–d). To distinguish the probe signal from endogenous autofluorescence and Raman‐active molecules in the tissue matrix, multivariate curve resolution (MCR) analysis was performed on the spectral dataset recorded from the Raman‐mapped tumor sections. MCR is designed to tackle such problems by expressing the original data through a bilinear model of pure component meaningful contributions.^[ [43] ^] Tissue sections were divided into five groups: DU145 control, DU145‐nanoSABER, DU145‐Scr, LNCaP control, and LNCaP‐nanoSABER, with the control group representing mice injected with 100 µL of PBS vehicle. Collected Raman spectra were divided into the above‐mentioned classes. The tumor dataset was also supplemented with spectra from the quartz coverslip and a separate class was created to preclude the impact of background spectral features in the ensuing analysis. […] Since we are particularly interested in the wavenumber features in the cell‐silent region (i.e., the nanoSABER‐specific bands in the otherwise biologically silent spectral region), MCR2 serves as the principal differentiator.
# To create a readily interpretable two‐dimensional (2D) visualization plot, we plotted MCR2 scores against that of MCR3, which contains primarily tissue‐characteristic and background features (Figure 6c). […] The highest MCR2 and MCR3 scores for the quartz‐only spectra were used as the lower and upper thresholds, respectively, to depict significant contributions from the individual components. […] This is indicative of a 100% specificity of the nanoSABER probe, without secondary non‐specific spectra from any of the other tumor treatment classes in the ROI. Moreover, 15% of all spectra obtained from mice with DU145 tumors treated with the nanoSABER probe were situated within the ROI, which confirms the high penetration efficiency of the nanoprobes. […]
# DU145 tumor = experiment: in vivo Raman imaging of tumor-bearing mice; design: species or system NU/J nude mice; settings: 2 h after IV injection of 0.0125 mmol kg-1
# Method: (§1) To further evaluate the ability of the nanoSABER probe to delineate legumain‐overexpressing tumors, in vivo Raman imaging of tumors of mice inoculated with DU145 and LNCaP cells was performed (Figure 6a). The Raman images were captured 2 h after the intravenous (IV) injection of the nanoSABER probe. […] Our results validated that nanoSABER experienced tumor legumain‐triggered self‐assembly into alkyne‐dimer nanoparticles that effectively generated distinct and higher Raman signals in DU145 tumors. To validate our findings, we included a control group that received a PBS injection instead of the nanoSABER probes. In both types of tumors, no Raman signal was detected in the control group (Figure S15, Supporting Information), further confirming that the observed signals in the experimental groups were indeed attributable to the legumain‐instructed self‐assembly of alkyne‐dimer nanoparticles.
# (§2) All animal experiments were approved by an institutional animal care and use committee (IACUC) protocol. NU/J nude mice (male, 6–8 weeks old) were subcutaneously injected with 1 × 10^6 DU145 or LNCaP cells in the right flank. Once the tumor reached a volume of 100–200 mm^3, mice were IV injected with 0.0125 mmol kg^–1 nanoSABER or PBS (control group). After 2 h, Raman imaging was performed to determine the amount of intracellular self‐assembly within the tumors.
# LNCaP tumors = experiment: in vivo Raman imaging of tumor-bearing mice; design: species or system NU/J nude mice; settings: 2 h after IV injection of 0.0125 mmol kg-1, compared with DU145
# Method: as §1, §2
# DU145 cells = experiment: confocal Raman imaging of cells; assay type: cell-based; settings: 100 µM, 3 h, then fresh media 30 min; fixed cells; DU145, legumain overexpressing
# Method: (§3) Raman measurements were performed on cells cultured on quartz slides. Cells were incubated with 100 µM nanoSABER probe solution for 3 h, then fresh media was added and incubation was continued for an extra 30 min. Subsequently, the cells were washed three times with phosphate‐buffered saline (PBS), fixed with 4% paraformaldehyde (PFA) for 20 min, and washed with PBS again. Finally, cells were imaged using a confocal Raman microscope. Cell boundaries were constructed using the Raman peak at 1440 cm^−1 characteristic of intrinsic cellular signals.^[ [29] ^] […] These spectral features indicate legumain‐mediated intracellular self‐assembly of nanoSABER into alkyne‐dimer nanoparticles in DU145 cells. The Raman mapping results were consistent with our in vitro solution‐based measurements (Figure 2f) where the nitrile peak diminished after the formation of alkyne‐dimer.
# (§4) Raman spectra of all synthesized peptides were acquired using a 785 nm laser and a 50× objective. The acquisition time was 10 s with 5 repetitions. All spectra were processed using custom‐written scripts in MATLAB for a tenth‐order least‐squares polynomial baseline correction with a moving window of 50. All Raman cellular imaging maps were acquired using 785 nm laser excitation and a 60× water immersion objective. For each acquisition time, the number of accumulations were 6 s and 8 acquisitions, respectively. For sample preparation, 1 × 10^5 cells were cultured in six‐well plates containing 10×10 mm quartz slides for 24 h. Cells were incubated with 100 µM of nanoSABER or Scr nanoprobe for 3 h followed by replacement with fresh media and additional incubation for 30 min. Cells were washed with PBS three times and then fixed with 4 % paraformaldehyde (PFA) for 20 min, resuspended back in PBS, and then imaged using a confocal Raman microscope. […] For each group, three independent experiments were performed, and from each pellet, we recorded Raman spectra from eight different positions. […]
# LNCaP cells = experiment: confocal Raman imaging of cells; assay type: cell-based; settings: 100 µM, 3 h, then fresh media 30 min, fixed cells, legumain low-expressing
# Method: as §3, §4
# RWPE1 cells = experiment: confocal Raman imaging of cells; assay type: cell-based; settings: 100 µM, 3 h, then fresh media 30 min; fixed cells; RWPE1, normal prostate epithelium
# Method: as §3, §4
substance,measurement,setting,value
Ac‐Arg‐Arg‐Arg‐Arg‐Arg‐Arg‐Ala‐Ala‐Asn‐Cys(StBu)‐Pra‐Lys‐CBT [nanoSABER],average ratio of alkyne to nitrile Raman peak intensity of spectra within the ROI,DU145 tumors; DU145 tumors excised 2 h after IV 0.0125 mmol kg-1,1.5
same,share of all spectra situated within the ROI,"DU145 tumors; DU145 tumors excised 2 h after IV 0.0125 mmol kg-1, 12 µm cryosections",15%
same,specificity (spectra in the ROI of MCR2 versus MCR3 score plot),"DU145 tumors; tumors excised 2 h after IV 0.0125 mmol kg-1, 12 µm cryosections",100%
same,Raman signal of the alkyne peak at 2120 cm-1 in the tumor,DU145 tumor,Intense Raman signal
same,Raman signal intensity within the tumor,LNCaP tumors,significantly weaker
same,"Raman map, alkyne 2120 cm-1 and nitrile 2230 cm-1 signals",DU145 cells,undetectable signal levels at 2230 cm^−1
same,"Raman map, alkyne and nitrile signals",LNCaP cells,signals for both alkyne and nitrile groups from the nanoprobe were observed
same,"Raman map, alkyne and nitrile signals",RWPE1 cells,signals for both alkyne and nitrile groups from the nanoprobe were observed
